From ChEMBL document CHEMBL1124469, “Synthesis and dopaminergic activity of 2-substituted octahydrobenzo[f]quinolines” (J Med Chem, 1989) come the findings set out here.

Molecules are shown by their SMILES.

Experiment [1] concerns the target D(2) dopamine receptor (Bos taurus) (UniProt P20288). Nature of the experiment: Low percent binding affinity for different states of the Dopamine D-2 receptor in bovine anterior pituitary membranes, using radioligand [3H]spiroperidol. The class given is cell membranes.
The target of experiment [2] is T1, D(2) dopamine receptor (Bos taurus, UniProt P20288). Nature of the experiment: Low binding affinity for dopamine D-2 receptor from bovine anterior pituitary membrane, using radioligand [3H]spiroperidol.
T1 sequence (P20288 whole entry): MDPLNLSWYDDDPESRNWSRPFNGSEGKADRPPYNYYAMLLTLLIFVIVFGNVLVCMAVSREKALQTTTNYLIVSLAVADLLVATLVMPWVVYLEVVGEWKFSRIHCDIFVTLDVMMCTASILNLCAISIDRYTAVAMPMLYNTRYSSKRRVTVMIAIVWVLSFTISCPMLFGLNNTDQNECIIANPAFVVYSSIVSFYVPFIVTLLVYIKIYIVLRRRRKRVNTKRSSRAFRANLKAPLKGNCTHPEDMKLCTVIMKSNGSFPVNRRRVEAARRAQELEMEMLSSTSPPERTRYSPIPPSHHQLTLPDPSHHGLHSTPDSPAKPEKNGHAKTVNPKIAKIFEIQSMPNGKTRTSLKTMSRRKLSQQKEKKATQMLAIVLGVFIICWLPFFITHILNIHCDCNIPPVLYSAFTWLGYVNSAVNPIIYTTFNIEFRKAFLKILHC
Experiment [3] addresses T1, D(2) dopamine receptor. The experiment can be described thus: Low binding affinity for dopamine D-2 receptor from bovine anterior pituitary membrane, using radioligand [3H]spiroperidol in bovine anterior pituitary membranes. It counts as cell membranes.
In experiment [4] the target is T1, D(2) dopamine receptor. The experiment can be described thus: High binding affinity for dopamine D-2 receptor from bovine anterior pituitary membrane, using radioligand [3H]spiroperidol.
The target in experiment [5] is D(2) dopamine receptor (Bos taurus) (UniProt P20288). Nature of the experiment: High percent binding affinity for different states of the Dopamine receptor D2 in bovine anterior pituitary membranes, using radioligand [3H]spiroperidol.
Chain of D(2) dopamine receptor (Bos taurus) (P20288 whole entry): as above
Experiment [6] addresses T1, D(2) dopamine receptor. The experiment can be described thus: High binding affinity for dopamine D-2 receptor from bovine anterior pituitary membrane, using radioligand [3H]spiroperidol in bovine anterior pituitary membranes. It counts as cell membranes.
Experiment [7] addresses T1, D(2) dopamine receptor. The experiment can be described thus: Low binding affinity for dopamine receptor D2 from bovine anterior pituitary membrane, using radioligand [3H]spiroperidol in bovine anterior pituitary membranes. The class given is cell membranes.
Experiment [8] has as its target D(2) dopamine receptor (Bos taurus) (UniProt P20288). The experiment can be described thus: Low percent binding affinity for different states of the dopamine receptor D2 in bovine anterior pituitary membranes, using radioligand [3H]spiroperidol. It counts as cell membranes.

Consider `CCCN1C[C@H](C)C[C@@H]2c3cccc(O)c3CC[C@H]21`, for which the Low in experiment [1] worked out at 100%.

On to `CCCN1C[C@H](CSC)C[C@@H]2c3ccc(O)c(O)c3CC[C@H]21`, for which the inhibition constant Ki at D(2) dopamine receptor [2] worked out at 1.73 µM. Also, the Low in experiment [1] stood at 100%.

At D(2) dopamine receptor [3], `CCCN1C[C@H](CC#N)C[C@@H]2c3cccc(O)c3CC[C@H]21` returned a Ki of 5.39 µM. Further, in experiment [1], the Low turned out to be 100%.

Regarding `CCCN1C[C@H](CC#N)C[C@@H]2c3cc(O)c(O)cc3CC[C@H]21`, the Ki on D(2) dopamine receptor [4] is 0.006 µM; at D(2) dopamine receptor [2] it was 0.36 µM. Besides, the Low in experiment [1] worked out at 56%. The same compound showed a Percent of receptors in high-affinity state in experiment [5] of 44%.

Regarding `CCCN1C[C@H](CC#N)C[C@@H]2c3cc(O)ccc3CC[C@H]21`, the Ki worked out at 0.004 µM on D(2) dopamine receptor [6] and 0.28 µM at D(2) dopamine receptor [3]. This compound showed a Low in experiment [1] of 70%. In addition, in experiment [5], the Percent of receptors in high-affinity state came to 30%.

`CCCN1C[C@H](CC#N)C[C@@H]2c3ccc(O)c(O)c3CC[C@H]21` showed a Ki at D(2) dopamine receptor [2] of 1.46 µM. Moreover, in experiment [1], the Low amounted to 100%.

`CCCN1C[C@H](CSC)C[C@@H]2c3cccc(O)c3CC[C@H]21` had a Ki at D(2) dopamine receptor [7] of 0.25 µM. The same compound showed a Low in experiment [8] of 100%.

For the compound `NCCc1ccc(O)c(O)c1`, the Low in experiment [1] was 69%. In experiment [5], this compound had a High of 31%.

As to `CCCN1C[C@H](C)C[C@@H]2c3cc(O)ccc3CC[C@H]21`, the values for the inhibitory constant (Ki) at D(2) dopamine receptor [4] and at D(2) dopamine receptor [2] were 0.008 µM and 1.94 µM, respectively. The Low in experiment [1] worked out at 87%. Further, the Percent of receptors in high-affinity state in experiment [5] is 13%.

With `CCCN1C[C@H](CSC)C[C@@H]2c3cc(O)ccc3CC[C@H]21`, the Ki was 0.014 µM on D(2) dopamine receptor [6] and 1.21 µM on D(2) dopamine receptor [3]. In addition, the Low in experiment [1] amounted to 79%. The compound also had a Percent of receptors in high-affinity state in experiment [5] of 21%.

Consider `CCCN1C[C@H](CSC)C[C@@H]2c3cc(O)c(O)cc3CC[C@H]21`, for which the Low in experiment [1] was determined as 67%. The compound also returned a Percent of receptors in high-affinity state in experiment [5] of 33%.

Usually Ki stands for a measure of affinity in units of concentration, obtained from inhibition or displacement. High values mean a looser hold on the target, low ones a stronger hold on the target.
